# US20260297109A1, “COMPOUNDS AS SUMO ACTIVATING ENZYME INHIBITORS” (WIGEN BIOMEDICINE TECHNOLOGY (SHANGHAI) CO., LTD., priority 2022, published 2026)
# Target: T1, SAE (Homo sapiens, UniProt Q9UBT2)
# T1 construct: endogenous in cells; host or cells: HCT116
# T1 sequence (Q9UBT2 1-640): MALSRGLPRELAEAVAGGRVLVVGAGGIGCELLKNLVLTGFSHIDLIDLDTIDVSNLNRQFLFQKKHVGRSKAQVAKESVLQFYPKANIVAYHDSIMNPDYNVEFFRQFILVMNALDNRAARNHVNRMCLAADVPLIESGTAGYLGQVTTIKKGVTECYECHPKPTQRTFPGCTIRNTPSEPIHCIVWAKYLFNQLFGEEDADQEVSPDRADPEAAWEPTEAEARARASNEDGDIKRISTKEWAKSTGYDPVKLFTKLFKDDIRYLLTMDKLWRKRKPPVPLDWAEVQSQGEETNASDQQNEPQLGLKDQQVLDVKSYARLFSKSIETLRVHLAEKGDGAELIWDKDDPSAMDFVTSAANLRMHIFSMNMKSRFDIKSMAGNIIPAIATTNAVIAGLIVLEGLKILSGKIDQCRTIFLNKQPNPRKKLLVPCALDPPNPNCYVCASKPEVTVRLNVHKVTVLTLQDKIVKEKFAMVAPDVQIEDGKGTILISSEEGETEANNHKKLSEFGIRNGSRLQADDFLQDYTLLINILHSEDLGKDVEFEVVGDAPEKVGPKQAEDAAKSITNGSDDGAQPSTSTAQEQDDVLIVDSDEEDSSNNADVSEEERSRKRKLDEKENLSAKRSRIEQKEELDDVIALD
# T1 sequence (Q9UBE0 1-346): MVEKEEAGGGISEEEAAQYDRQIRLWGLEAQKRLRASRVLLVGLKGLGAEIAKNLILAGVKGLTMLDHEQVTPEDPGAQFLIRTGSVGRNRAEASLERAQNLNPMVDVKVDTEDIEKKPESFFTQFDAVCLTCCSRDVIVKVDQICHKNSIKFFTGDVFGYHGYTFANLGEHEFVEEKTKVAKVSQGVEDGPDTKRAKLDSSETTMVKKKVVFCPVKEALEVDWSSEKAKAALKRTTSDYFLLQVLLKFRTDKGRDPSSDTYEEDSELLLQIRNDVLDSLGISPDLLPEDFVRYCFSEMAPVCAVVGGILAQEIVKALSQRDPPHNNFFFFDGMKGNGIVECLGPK
# Experiment: SUMO IF: in vitro inhibitory activity assay against SAE in HCT116 cells (SUMO-2/3 immunofluorescence)
# Assay type: cell-based
# Details: class symbols, 6 h at 37° C.
# Method: Biological Example 1. In Vitro Inhibitory Activity Assay of Compounds of the Present Disclosure Against SAE
# HCT116 cells were seeded into a 96-well black transparent bottom plate at about 20000/well with 90 μL per well. The cells were incubated at 37° C. overnight for 24 h. The test compounds were 10-fold diluted to give a final concentration, and 10 μL of the diluted compounds was added to each well of the cell culture plate. The mixture was incubated at 37° C. for 6 h. The cells were then washed gently, the culture medium was discarded, and the cells were washed once with 200 μL of 0.1% PBST. 50 μL of 4% PFA was added to each well, and the cells were immobilized at room temperature for 20 min, and then washed with PBS 2-3 times. 50 μL of 0.2% Triton X-100 was added to each well, and the cells were left to stand at room temperature for 15 min and washed with 0.1% PBST 3 times. 100 μL of 3% BSA (0.6 g BSA+20 mL PBS) was added to each well, and the mixture was blocked at 37° C. for 30 min. After the blocking was completed, the liquid was removed and a primary antibody (SUMO-2/3 (18H8) Rabbit mAb, 1:400 dilution) was prepared with 1% BSA. 30 μL of the diluted primary antibody was added to each well, and the mixture was incubated at 4° C. overnight. The cells were washed 3 times with 200 μL of 0.1% PBST. A FITC secondary antibody (Fluorescein (FITC)-conjugated Affinipure Goat Anti-Rabbit IgG (H+L), 1:300 dilution) was further prepared with 1% BSA, and 40 μL of the diluted secondary antibody was added to each well. The mixture was incubated at room temperature in the dark for 2 h, and then the cells were washed 4 times with 0.1% PBST. The fluorescence signal of the sample was detected and compared to the DMSO group, and the inhibition rate and IC50 were calculated.
row,Compound,IC50 [nM]
1,NS(=O)(=O)OC[C@H]1[C@H](F)[C@@H](Nc2ncncc2C(=O)c2cc3c(s2)CC[C@]32NCCc3cc(Cl)c(F)cc32)C[C@@H]1O [Compound 698],≤ 50
2,CC1=C[C@@]2(NCCc3ccc(Cl)cc32)c2cc(C(=O)c3cncnc3N[C@H]3C[C@H](O)[C@@H](COS(N)(=O)=O)[C@@H]3F)sc21 [Compound 325],> 200
3,Cc1sc(C(=O)c2cncnc2N[C@H]2C[C@H](O)[C@@H](COS(N)(=O)=O)[C@@H]2F)cc1C1OCCc2ccc(Cl)cc21 (stereo partly drawn) [Compound 987],50 to 200
4,NS(=O)(=O)OC[C@H]1[C@H](F)[C@@H](Nc2ncncc2C(=O)c2cc3c(s2)CC[C@@]32OCCc3ccc(F)cc32)C[C@@H]1O [Compound 748],> 200
5,NS(=O)(=O)OC[C@H]1[C@H](F)[C@@H](Nc2ncncc2C(=O)c2cc3c(s2)CSC[C@]32NCCc3ncc(Cl)cc32)C[C@@H]1O [Compound 614],≤ 50
6,NS(=O)(=O)OC[C@H]1[C@H](F)[C@@H](Nc2ncncc2C(=O)c2cc3c(s2)C=C[C@]32OCCc3ccccc32)C[C@@H]1O [Compound 755],50 to 200
7,NS(=O)(=O)OC[C@H]1[C@H](F)[C@@H](Nc2ncncc2C(=O)c2cc(C3NCCc4ccc(Cl)cc43)c(Cl)s2)C[C@@H]1O (stereo partly drawn) [Compound 258],50 to 200
8,NS(=O)(=O)OC[C@H]1[C@H](F)[C@@H](Nc2ncncc2C(=O)c2cc3c(s2)COCC32NCCc3c(F)cc(Cl)cc32)C[C@@H]1O (stereo partly drawn) [Compound 573],50 to 200
9,CCN1Cc2sc(C(=O)c3cncnc3N[C@H]3C[C@H](O)[C@@H](COS(N)(=O)=O)[C@@H]3F)cc2[C@]2(C1)OCCc1ccc(F)cc12 [Compound 728],≤ 50
10,NS(=O)(=O)OC[C@H]1[C@H](F)[C@@H](Nc2ncncc2C(=O)c2cc3c(s2)C=CCC32NCCc3ccc(Cl)cc32)C[C@@H]1O (stereo partly drawn) [Compound 120],≤ 50
11,NS(=O)(=O)OC[C@H]1[C@H](F)[C@@H](Nc2ncncc2C(=O)c2cc3c(s2)COC[C@]32NCCc3c(F)cc(Cl)cc32)C[C@@H]1O [Compound 575],50 to 200
12,NS(=O)(=O)OC[C@H]1[C@H](F)[C@@H](Nc2ncncc2C(=O)c2cc3c(s2)CC[C@]32NCCc3ccc(C4CC4)cc32)C[C@@H]1O [Compound 688],50 to 200
13,NS(=O)(=O)OC[C@H]1[C@H](F)[C@@H](Nc2ncncc2C(=O)c2cc3c(s2)C(F)(F)CC32NCCc3ccc(Cl)cc32)C[C@@H]1O (stereo partly drawn) [Compound 327],50 to 200
14,NS(=O)(=O)OC[C@H]1[C@H](F)[C@@H](Nc2ncncc2C(=O)c2cc3c(s2)COC32NCCc3ccc(Cl)cc32)C[C@@H]1O (stereo partly drawn) [Compound 164],50 to 200
15,CC1(C)CN[C@]2(CCCc3sc(C(=O)c4cncnc4N[C@H]4C[C@H](O)[C@@H](COS(N)(=O)=O)[C@@H]4F)cc32)c2cc(Cl)ccc21 [Compound 1028],50 to 200
16,NS(=O)(=O)OC[C@H]1[C@H](F)[C@@H](Nc2ncncc2C(=O)c2cc3c(s2)COC[C@@]32NCCc3ccc(Cl)c(F)c32)C[C@@H]1O [Compound 568],> 200
17,Cc1sc(C(=O)c2cncnc2N[C@H]2C[C@H](O)[C@@H](COS(N)(=O)=O)[C@@H]2F)cc1C1NCCc2cc(Cl)ncc21 (stereo partly drawn) [Compound 254],50 to 200
18,CCN1Cc2sc(C(=O)c3cncnc3N[C@H]3C[C@H](O)[C@@H](COS(N)(=O)=O)[C@@H]3F)cc2C2(C1)OCCc1ccc(F)cc12 (stereo partly drawn) [Compound 726],50 to 200

row,Compound,IC50 [nM]
1,NS(=O)(=O)OC[C@H]1[C@H](F)[C@@H](Nc2ncncc2C(=O)c2nc3c(s2)CCC[C@]32NCCc3ccc(Cl)cc32)C[C@@H]1O [Compound 587],50 to 200
2,NS(=O)(=O)OC[C@H]1[C@H](F)[C@@H](Nc2ncncc2C(=O)c2nc3c(s2)CSCC32NCCc3ccc(Cl)cc32)C[C@@H]1O (stereo partly drawn) [Compound 591],> 200
3,Cc1sc(C(=O)c2cncnc2N[C@H]2C[C@H](O)[C@@H](COS(N)(=O)=O)[C@@H]2F)cc1C1NCCc2ccc(C#N)cc21 (stereo partly drawn) [Compound 238],> 200
4,CC1CNC2(CCCc3sc(C(=O)c4cncnc4N[C@H]4C[C@H](O)[C@@H](COS(N)(=O)=O)[C@@H]4F)cc32)c2cc(Cl)ccc21 (stereo partly drawn) [Compound 1020],50 to 200
5,NS(=O)(=O)OC[C@H]1[C@H](F)[C@@H](Nc2ncncc2C(=O)c2cc(C3NCCc4ccc(Cl)cc43)c(C(F)(F)F)s2)C[C@@H]1O (stereo partly drawn) [Compound 268],50 to 200
6,CC1=CC2(NCCc3ccc(F)cc32)c2cc(C(=O)c3cncnc3N[C@H]3C[C@H](O)[C@@H](COS(N)(=O)=O)[C@@H]3F)sc21 (stereo partly drawn) [Compound 621],50 to 200
7,NS(=O)(=O)OC[C@H]1[C@H](F)[C@@H](Nc2ncncc2C(=O)c2cc3c(s2)CCCC32NC(=O)Cc3ccc(Cl)cc32)C[C@@H]1O (stereo partly drawn) [Compound 627],> 200
8,NS(=O)(=O)OC[C@H]1[C@H](F)[C@@H](Nc2ncncc2C(=O)c2cc3c(s2)CCC[C@]32NCCc3ccc(C(F)(F)F)cc32)C[C@@H]1O [Compound 669],50 to 200
9,NS(=O)(=O)OC[C@H]1[C@H](F)[C@@H](Nc2ncncc2C(=O)c2cc3c(s2)CCC32NCCc3ccncc32)C[C@@H]1O (stereo partly drawn) [Compound 160],50 to 200
10,NS(=O)(=O)OC[C@H]1[C@H](F)[C@@H](Nc2ncncc2C(=O)c2cc3c(s2)COC[C@]32NCCc3ccccc32)C[C@@H]1O [Compound 99],50 to 200
11,NS(=O)(=O)OC[C@H]1[C@H](F)[C@@H](Nc2ncncc2C(=O)c2cc3c(s2)CCC[C@@]32OCCc3ccc(Cl)cc32)C[C@@H]1O [Compound 685],> 200
12,NS(=O)(=O)OC[C@H]1[C@H](F)[C@@H](Nc2ncncc2C(=O)c2cc3c(s2)COC[C@@]32NCCc3cc(F)c(Cl)cc32)C[C@@H]1O [Compound 571],> 200
13,Cc1ccc2c(c1)C1(CCc3sc(C(=O)c4cncnc4N[C@H]4C[C@H](O)[C@@H](COS(N)(=O)=O)[C@@H]4F)cc31)NCC2 (stereo partly drawn) [Compound 148],50 to 200
14,NS(=O)(=O)OC[C@H]1[C@H](F)[C@@H](Nc2ncncc2C(=O)c2cc3c(s2)CCCC32NCCc3ccncc32)C[C@@H]1O (stereo partly drawn) [Compound 118],50 to 200
15,CC(C)N1Cc2sc(C(=O)c3cncnc3N[C@H]3C[C@H](O)[C@@H](COS(N)(=O)=O)[C@@H]3F)cc2C2(C1)OCCc1ccc(F)cc12 (stereo partly drawn) [Compound 732],50 to 200
16,NS(=O)(=O)OC[C@H]1[C@H](F)[C@@H](Nc2ncncc2C(=O)c2cc3c(s2)COCC32NCCc3ccc(F)cc32)C[C@@H]1O (stereo partly drawn) [Compound 100],50 to 200
17,NS(=O)(=O)OC[C@H]1[C@H](F)[C@@H](Nc2ncncc2C(=O)c2cc3c(s2)COC[C@@]32NCCc3cc(Cl)c(Cl)cc32)C[C@@H]1O [Compound 562],> 200

# Same assay, conditions: numeric values, 6 h at 37° C.
row,Compound,IC50 [nM]
1,CC(C)N1Cc2sc(C(=O)c3cncnc3N[C@H]3C[C@H](O)[C@@H](COS(N)(=O)=O)[C@@H]3F)cc2[C@@]2(C1)NCCc1ccc(Cl)cc12 [Compound 649],> 1000
2,C=CCN1Cc2sc(C(=O)c3cncnc3N[C@H]3C[C@H](O)[C@@H](COS(N)(=O)=O)[C@@H]3F)cc2[C@]2(C1)NCCc1ccc(Cl)cc12 [Compound 656],25.1
3,Cc1sc(C(=O)c2cncnc2N[C@H]2C[C@H](O)[C@@H](COS(N)(=O)=O)[C@@H]2F)cc1[C@@H]1NCCc2ccc(F)cc21 [Compound 236],73.1
4,NS(=O)(=O)OC[C@H]1[C@H](F)[C@@H](Nc2ncncc2C(=O)c2cc3c(s2)CN(CC(F)(F)F)C[C@@]32NCCc3ccc(Cl)cc32)C[C@@H]1O [Compound 652],> 1000
